The source of these data is patent US11905252B2, “Compounds” (INFLAZOME LIMITED, priority 2018, dated 2024).

Some results are limits rather than exact numbers.

For this assay, the target named is T1, NLRP3 (Homo sapiens, UniProt Q96P20).
T1 construct: Seed THP-1 cells (25,000 cells/well) containing 1.0 μg/ml LPS; host or cells: THP-1 cells, LPS-primed, nigericin-stimulated
Description: THP-1 cells pyroptosis assay (LPS-primed, nigericin-stimulated, resazurin readout). It counts as cell-based. The note with it: 1 μg/ml LPS, 5 μM nigericin. Here is the method: THP-1 cells (ATCC #TIB-202) were grown in RPMI containing L-glutamine (Gibco #11835) supplemented with 1 mM sodium pyruvate (Sigma #S8636) and penicillin (100 units/ml)/streptomycin (0.1 mg/ml) (Sigma #P4333) in 10% Fetal Bovine Serum (FBS) (Sigma #F0804). The cells were routinely passaged and grown to confluency (˜10^6 cells/ml). On the day of the experiment, THP-1 cells were harvested and resuspended into RPMI medium (without FBS). The cells were then counted and viability (>90%) checked by Trypan blue (Sigma #T8154). Appropriate dilutions were made to give a concentration of 625,000 cells/ml. To this diluted cell solution was added LPS (Sigma #L4524) to give a 1 μg/ml Final Assay Concentration (FAC). 40 μl of the final preparation was aliquoted into each well of a 96-well plate. The plate thus prepared was used for compound screening.
The following method step-by-step assay was followed for compound screening. • 1. Seed THP-1 cells (25,000 cells/well) containing 1.0 μg/ml LPS in 40 μl of RPMI medium (without FBS) in 96-well, black walled, clear bottom cell culture plates coated with poly-D-lysine (VWR #734-0317) • 2. Add 5 μl compound (8 points half-log dilution, with 10 μM top dose) or vehicle (DMSO 0.1% FAC) to the appropriate wells • 3. Incubate for 3 hrs at 37° C. in 5% CO2 • 4. […] Plates were read in an Envision reader at Ex 560 nm and Em 590 nm • 9. […]
In general terms: Alamar Blue is a resazurin reagent that responds to reducing activity.

For orientation: IC50 means the concentration that gives 50% inhibition. Higher therefore signals weaker potency.

T1 sequence (Q96P20 whole entry): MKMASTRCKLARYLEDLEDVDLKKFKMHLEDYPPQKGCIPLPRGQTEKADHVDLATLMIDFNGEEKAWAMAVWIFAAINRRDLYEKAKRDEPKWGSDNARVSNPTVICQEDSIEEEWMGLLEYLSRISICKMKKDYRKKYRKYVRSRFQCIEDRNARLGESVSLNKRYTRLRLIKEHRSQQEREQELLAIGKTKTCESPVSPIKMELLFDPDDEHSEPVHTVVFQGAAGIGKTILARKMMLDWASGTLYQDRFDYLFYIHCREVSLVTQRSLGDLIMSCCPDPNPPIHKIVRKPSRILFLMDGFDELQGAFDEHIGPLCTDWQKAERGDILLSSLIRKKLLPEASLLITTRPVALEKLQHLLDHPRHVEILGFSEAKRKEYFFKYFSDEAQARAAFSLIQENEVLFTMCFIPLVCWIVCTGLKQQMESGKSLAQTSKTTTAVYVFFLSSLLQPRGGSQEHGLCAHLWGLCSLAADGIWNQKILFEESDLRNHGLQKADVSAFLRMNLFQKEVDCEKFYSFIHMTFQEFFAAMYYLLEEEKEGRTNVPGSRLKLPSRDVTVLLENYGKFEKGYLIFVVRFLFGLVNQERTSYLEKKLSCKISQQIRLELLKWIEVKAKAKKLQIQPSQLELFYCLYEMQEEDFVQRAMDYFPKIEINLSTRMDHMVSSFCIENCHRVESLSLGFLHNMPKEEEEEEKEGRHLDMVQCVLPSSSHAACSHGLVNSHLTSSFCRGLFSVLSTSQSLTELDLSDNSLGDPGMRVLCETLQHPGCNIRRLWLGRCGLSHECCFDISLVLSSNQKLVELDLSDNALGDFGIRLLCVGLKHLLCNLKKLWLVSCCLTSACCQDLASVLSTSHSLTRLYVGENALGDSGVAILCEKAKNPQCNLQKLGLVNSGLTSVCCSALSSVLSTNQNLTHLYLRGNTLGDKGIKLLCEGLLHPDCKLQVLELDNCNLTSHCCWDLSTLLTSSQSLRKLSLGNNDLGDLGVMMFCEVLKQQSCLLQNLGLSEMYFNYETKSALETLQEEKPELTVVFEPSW

In the case of `Cn1nc(S(=O)(=O)NC(=O)Nc2c3c(c(C#N)c4c2CCC4)CCC3)cc1C(C)(C)O` [Example 1, N-((8-Cyano-1,2,3,5,6,7-hexahydro-s-indacen-4-yl)carbamoyl)-5-(2-hydroxypropan-2-yl)-1-methyl-1H-pyrazole-3-sulfonamide], the IC50 was in the range of 160 to 640 nM.

The compound `Cn1nc(S(=O)(=O)NC(=O)Nc2c3c(c(Br)c4c2CCC4)CCC3)cc1C(C)(C)O` [Example 2, N-((8-Bromo-1,2,3,5,6,7-hexahydro-s-indacen-4-yl)carbamoyl)-5-(2-hydroxypropan-2-yl)-1-methyl-1H-pyrazole-3-sulfonamide] displayed an IC50 of at most 160 nM.
